Reference: ChEMBL document CHEMBL5058541, “EUbOPEN Chemogenomics Library 2 (NanoBRET)” (2022)

Molecular target: T1, YEATS domain-containing protein 2 (Homo sapiens) (UniProt Q9ULM3)
T1 sequence (whole entry): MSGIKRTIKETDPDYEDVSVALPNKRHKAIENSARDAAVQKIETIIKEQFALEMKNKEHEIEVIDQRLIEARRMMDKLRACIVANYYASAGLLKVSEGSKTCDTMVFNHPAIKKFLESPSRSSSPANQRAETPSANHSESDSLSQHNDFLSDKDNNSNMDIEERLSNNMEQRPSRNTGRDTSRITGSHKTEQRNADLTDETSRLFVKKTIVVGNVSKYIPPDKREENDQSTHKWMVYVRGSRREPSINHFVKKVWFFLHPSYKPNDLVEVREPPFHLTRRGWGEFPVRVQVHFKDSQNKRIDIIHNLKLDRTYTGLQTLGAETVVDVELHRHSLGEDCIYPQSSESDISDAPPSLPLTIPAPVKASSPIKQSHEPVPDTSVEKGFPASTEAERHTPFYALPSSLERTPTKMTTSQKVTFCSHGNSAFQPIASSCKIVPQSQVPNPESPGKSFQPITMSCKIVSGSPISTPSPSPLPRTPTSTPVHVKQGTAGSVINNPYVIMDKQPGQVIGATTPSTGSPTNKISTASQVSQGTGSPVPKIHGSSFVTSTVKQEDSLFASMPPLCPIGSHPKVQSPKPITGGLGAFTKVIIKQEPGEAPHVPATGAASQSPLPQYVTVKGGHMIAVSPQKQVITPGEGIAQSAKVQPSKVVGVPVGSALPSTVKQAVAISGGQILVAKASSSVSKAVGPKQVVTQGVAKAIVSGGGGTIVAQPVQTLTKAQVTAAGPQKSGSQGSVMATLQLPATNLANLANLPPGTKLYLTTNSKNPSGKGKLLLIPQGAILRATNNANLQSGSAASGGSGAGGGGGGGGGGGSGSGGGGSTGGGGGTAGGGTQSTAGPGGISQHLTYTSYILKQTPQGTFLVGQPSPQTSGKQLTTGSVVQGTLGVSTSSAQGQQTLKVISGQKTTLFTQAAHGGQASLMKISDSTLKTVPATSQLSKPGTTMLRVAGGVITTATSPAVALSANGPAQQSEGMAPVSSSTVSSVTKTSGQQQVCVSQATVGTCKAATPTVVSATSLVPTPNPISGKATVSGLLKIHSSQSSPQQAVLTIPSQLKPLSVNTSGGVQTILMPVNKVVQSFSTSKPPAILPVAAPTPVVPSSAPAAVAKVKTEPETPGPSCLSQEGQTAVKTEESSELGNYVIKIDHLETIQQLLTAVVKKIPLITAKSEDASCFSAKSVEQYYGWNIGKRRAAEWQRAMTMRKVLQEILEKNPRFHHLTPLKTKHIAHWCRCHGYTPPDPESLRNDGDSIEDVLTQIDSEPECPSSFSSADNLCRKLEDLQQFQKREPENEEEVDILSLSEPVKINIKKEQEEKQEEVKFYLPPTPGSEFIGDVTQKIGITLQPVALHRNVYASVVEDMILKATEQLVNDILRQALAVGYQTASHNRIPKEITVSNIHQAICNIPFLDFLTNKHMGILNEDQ
Assay: Thermal Shift Assay. Domain: start/stop M1-D141
Settings: Compound concentration 25.0 uM, Protein concentration 2.0 uM

Q: `CN(C)C(=O)c1ccc(-c2cc(C(=O)N[C@@H]3CCc4ccccc43)no2)cc1O` was tested. Which ΔTm did it give?
A: Its ΔTm is -0.01 c.
